Experimental data published in paper PMC9609767, “Radiosynthesis and Preclinical Evaluation of an ^18F-Labeled Triazolopyridopyrazine-Based Inhibitor for Neuroimaging of the Phosphodiesterase 2A (PDE2A)” (Pharmaceuticals, 2022).

Assays:
[1] = Dynamic PET/MR study in CD-1 mouse; type: in vivo; settings: for Uptake (SUVmean): uncorrected for metabolites
Method: For the time of the experiments, one female CD-1 mouse (10 weeks; 30.5 g) and one female SPRD rat (9 weeks; 256 g) were kept in a dedicated climatic chamber with free access to water and food under a 12:12 h dark:light cycle at a constant temperature (24 °C). The animals were anesthetized (Anaesthesia Unit U-410, agntho’s, Lidingö, Sweden) with isoflurane (2.0%, 300 mL/min) delivered in a 60% oxygen/40% air mixture (Gas Blender 100 Series, MCQ instruments, Rome, Italy) and their body temperature maintained at 37 °C with a thermal bed system for the duration of the PET studies. A dynamic PET scan (PET/MR 1T, Mediso nanoScan®, Hungary) started 20 s before intravenous injection into the tail vein of [^18F]11 and was performed in mouse for 60 min (4.9 MBq in 150 μL isotonic saline; 20.5 nmol/kg; Am: 8.9 GBq/μmol, EOS) in rat for 30 min (29.7 MBq in 400 μL isotonic saline; 12 nmol/kg; Am: 11 GBq/μmol, EOS). Each PET image was corrected for random coincidences, dead time, scatter and attenuation (AC), based on a whole body (WB) MR scan. The reconstruction parameters for the list mode data were 3D-ordered subset expectation maximization (OSEM), 4 iterations, 6 subsets, energy window: 400–600 keV, coincidence mode: 1–5, ring difference: 81. Preceding the PET scan a T1 weighted WB gradient echo sequence (TR/TE: 20/6.4 ms, NEX: 1, FA: 25, FOV: 64 × 64 mm, Matrix: 128 × 128, STh: 0.5 mm) was performed for AC and anatomical orientation. PET Images were analyzed with PMOD (PMOD Technologies LLC, v. 4.1, Zurich, Switzerland). The respective brain regions were identified using the mouse brain atlas template Ma-Benveniste-Mirrione-T2 or the rat brain atlas template Schwarz-T2. The regional activity data (radioactivity concentration, kBq/mL) were normalized to the injected dose (MBq) and corrected for the animal weight (g) to provide standardized uptake values (SUV, g/mL). Finally, the results of the PETscans are expressed as mean SUV of the respective region of interest ROI.

[2] = Chemical stability of the radiotracer in PBS and n-octanol; type: physicochemical; settings: 30 °C, 60 min, radio-HPLC
Method: In order to estimate the lipophilicity of [^18F]11, the partition coefficient was determined by the shake flask method using n-octanol and phosphate-buffered saline as partition system. […] The chemical stability of the radiotracer was investigated by incubation in phosphate-buffered saline (PBS) and n-octanol at 30 °C.
The determination of stability and logD value has been performed according to the procedures described by Sadeghzadeh and Wenzel et al..

**Q.** With CCCC(O)c1ccc([18F])c(-c2nnc3c(C)nc4ccc(C5CC5)nc4n23)c1 (stereo not shown) [[^18F]11] as the compound, how does the “maximum SUV in small intestine” value ([1]; 60 min p.i.) read?
**A.** Its value is ~ 35 SUV.

**Q.** And the “SUV in bladder, spleen, muscle, gallbladder, kidney, and liver” value ([1]; all time points investigated)?
**A.** The value was less than 5 SUV.

**Q.** What about the “Uptake (SUVmean)” value ([1]; bladder, 5 min) of the same compound?
**A.** The value was 0.10 SUV.

**Q.** What about the “Uptake (SUVmean)” value ([1]; bladder, 15 min) of the same compound?
**A.** Its value is 0.08 SUV.

**Q.** And the “Uptake (SUVmean)” value ([1]; bladder, 30 min)?
**A.** Its value is 0.10 SUV.

**Q.** What about the “Uptake (SUVmean)” value ([1]; bladder, 45 min) of the same compound?
**A.** Its value is 0.07 SUV.

**Q.** What about the “Uptake (SUVmean)” value ([1]; bladder, 60 min) of the same compound?
**A.** The value was 0.06 SUV.

**Q.** And the “Uptake (SUVmean)” value ([1]; blood, 5 min)?
**A.** The value was 0.93 SUV.

**Q.** What about the “Uptake (SUVmean)” value ([1]; blood, 15 min) of the same compound?
**A.** Its value is 0.56 SUV.

**Q.** And the “Uptake (SUVmean)” value ([1]; blood, 30 min)?
**A.** The value was 0.46 SUV.

**Q.** And the “Uptake (SUVmean)” value ([1]; blood, 45 min)?
**A.** Its value is 0.34 SUV.

**Q.** What about the “Uptake (SUVmean)” value ([1]; blood, 60 min) of the same compound?
**A.** The value was 0.32 SUV.

**Q.** And the “Uptake (SUVmean)” value ([1]; bones, 5 min)?
**A.** The value was 0.71 SUV.

**Q.** What about the “Uptake (SUVmean)” value ([1]; bones, 15 min) of the same compound?
**A.** Its value is 0.47 SUV.

**Q.** And the “Uptake (SUVmean)” value ([1]; bones, 30 min)?
**A.** Its value is 0.31 SUV.

**Q.** What about the “Uptake (SUVmean)” value ([1]; bones, 45 min) of the same compound?
**A.** Its value is 0.23 SUV.

**Q.** And the “Uptake (SUVmean)” value ([1]; bones, 60 min)?
**A.** The value was 0.20 SUV.

**Q.** What about the “Uptake (SUVmean)” value ([1]; caecum, 5 min) of the same compound?
**A.** The value was 0.10 SUV.

**Q.** What about the “Uptake (SUVmean)” value ([1]; caecum, 15 min) of the same compound?
**A.** The value was 0.12 SUV.

**Q.** What about the “Uptake (SUVmean)” value ([1]; caecum, 30 min) of the same compound?
**A.** The value was 0.11 SUV.

**Q.** What about the “Uptake (SUVmean)” value ([1]; caecum, 45 min) of the same compound?
**A.** Its value is 0.11 SUV.

**Q.** And the “Uptake (SUVmean)” value ([1]; caecum, 60 min)?
**A.** The value was 0.16 SUV.

**Q.** And the “TAC peak value (SUV)” value ([1]; cerebellum, at 0.8 min)?
**A.** Its value is 0.61 SUV.

**Q.** And the “TAC peak value (SUV)” value ([1]; cortex, at 2.8 min)?
**A.** The value was 0.47 SUV.

**Q.** And the “Uptake (SUVmean)” value ([1]; gallbladder, 5 min)?
**A.** Its value is 1.41 SUV.

**Q.** And the “Uptake (SUVmean)” value ([1]; gallbladder, 15 min)?
**A.** Its value is 1.78 SUV.

**Q.** And the “Uptake (SUVmean)” value ([1]; gallbladder, 30 min)?
**A.** Its value is 1.46 SUV.

**Q.** And the “Uptake (SUVmean)” value ([1]; gallbladder, 45 min)?
**A.** The value was 1.32 SUV.

**Q.** What about the “Uptake (SUVmean)” value ([1]; gallbladder, 60 min) of the same compound?
**A.** The value was 1.34 SUV.

**Q.** What about the “Uptake (SUVmean)” value ([1]; heart, 5 min) of the same compound?
**A.** The value was 1.11 SUV.

**Q.** And the “Uptake (SUVmean)” value ([1]; heart, 15 min)?
**A.** Its value is 0.65 SUV.

**Q.** What about the “Uptake (SUVmean)” value ([1]; heart, 30 min) of the same compound?
**A.** The value was 0.52 SUV.

**Q.** What about the “Uptake (SUVmean)” value ([1]; heart, 45 min) of the same compound?
**A.** The value was 0.37 SUV.

**Q.** And the “Uptake (SUVmean)” value ([1]; heart, 60 min)?
**A.** Its value is 0.35 SUV.

**Q.** What about the “TAC peak value (SUV)” value ([1]; hippocampus, at 2.8 min) of the same compound?
**A.** Its value is 0.70 SUV.

**Q.** What about the “Uptake (SUVmean)” value ([1]; kidney left, 5 min) of the same compound?
**A.** The value was 2.79 SUV.

**Q.** What about the “Uptake (SUVmean)” value ([1]; kidney left, 15 min) of the same compound?
**A.** The value was 2.37 SUV.

**Q.** What about the “Uptake (SUVmean)” value ([1]; kidney left, 30 min) of the same compound?
**A.** The value was 1.61 SUV.

**Q.** And the “Uptake (SUVmean)” value ([1]; kidney left, 45 min)?
**A.** The value was 1.18 SUV.

**Q.** What about the “Uptake (SUVmean)” value ([1]; kidney left, 60 min) of the same compound?
**A.** Its value is 1.17 SUV.

**Q.** What about the “Uptake (SUVmean)” value ([1]; liver, 5 min) of the same compound?
**A.** The value was 3.40 SUV.

**Q.** And the “Uptake (SUVmean)” value ([1]; liver, 15 min)?
**A.** The value was 4.16 SUV.

**Q.** And the “Uptake (SUVmean)” value ([1]; liver, 30 min)?
**A.** Its value is 3.62 SUV.

**Q.** And the “Uptake (SUVmean)” value ([1]; liver, 45 min)?
**A.** Its value is 3.17 SUV.

**Q.** What about the “Uptake (SUVmean)” value ([1]; liver, 60 min) of the same compound?
**A.** The value was 3.00 SUV.

**Q.** What about the “Uptake (SUVmean)” value ([1]; lung, 5 min) of the same compound?
**A.** Its value is 0.65 SUV.

**Q.** What about the “Uptake (SUVmean)” value ([1]; lung, 15 min) of the same compound?
**A.** The value was 0.43 SUV.

**Q.** And the “Uptake (SUVmean)” value ([1]; lung, 30 min)?
**A.** The value was 0.33 SUV.

**Q.** What about the “Uptake (SUVmean)” value ([1]; lung, 45 min) of the same compound?
**A.** The value was 0.25 SUV.

**Q.** And the “Uptake (SUVmean)” value ([1]; lung, 60 min)?
**A.** Its value is 0.25 SUV.

**Q.** And the “Uptake (SUVmean)” value ([1]; muscle, 5 min)?
**A.** The value was 0.63 SUV.

**Q.** What about the “Uptake (SUVmean)” value ([1]; muscle, 15 min) of the same compound?
**A.** The value was 0.49 SUV.

**Q.** What about the “Uptake (SUVmean)” value ([1]; muscle, 30 min) of the same compound?
**A.** Its value is 0.35 SUV.

**Q.** What about the “Uptake (SUVmean)” value ([1]; muscle, 45 min) of the same compound?
**A.** Its value is 0.26 SUV.

**Q.** And the “Uptake (SUVmean)” value ([1]; muscle, 60 min)?
**A.** The value was 0.21 SUV.

**Q.** What about the “Uptake (SUVmean)” value ([1]; small intestine, 5 min) of the same compound?
**A.** The value was 2.10 SUV.

**Q.** What about the “Uptake (SUVmean)” value ([1]; small intestine, 15 min) of the same compound?
**A.** Its value is 9.48 SUV.

**Q.** What about the “Uptake (SUVmean)” value ([1]; small intestine, 30 min) of the same compound?
**A.** Its value is 20.64 SUV.

**Q.** And the “Uptake (SUVmean)” value ([1]; small intestine, 45 min)?
**A.** The value was 29.65 SUV.

**Q.** And the “Uptake (SUVmean)” value ([1]; small intestine, 60 min)?
**A.** The value was 35.11 SUV.

**Q.** What about the “Uptake (SUVmean)” value ([1]; spleen, 5 min) of the same compound?
**A.** The value was 0.48 SUV.

**Q.** What about the “Uptake (SUVmean)” value ([1]; spleen, 15 min) of the same compound?
**A.** Its value is 0.59 SUV.

**Q.** What about the “Uptake (SUVmean)” value ([1]; spleen, 30 min) of the same compound?
**A.** The value was 0.45 SUV.

**Q.** And the “Uptake (SUVmean)” value ([1]; spleen, 45 min)?
**A.** Its value is 0.30 SUV.

**Q.** What about the “Uptake (SUVmean)” value ([1]; spleen, 60 min) of the same compound?
**A.** The value was 0.24 SUV.

**Q.** What about the “Uptake (SUVmean)” value ([1]; stomach, 5 min) of the same compound?
**A.** Its value is 0.15 SUV.

**Q.** What about the “Uptake (SUVmean)” value ([1]; stomach, 15 min) of the same compound?
**A.** The value was 0.18 SUV.

**Q.** And the “Uptake (SUVmean)” value ([1]; stomach, 30 min)?
**A.** The value was 0.19 SUV.

**Q.** What about the “Uptake (SUVmean)” value ([1]; stomach, 45 min) of the same compound?
**A.** The value was 0.17 SUV.

**Q.** What about the “Uptake (SUVmean)” value ([1]; stomach, 60 min) of the same compound?
**A.** Its value is 0.13 SUV.

**Q.** And the “TAC peak value (SUV)” value ([1]; striatum, at 2.8 min)?
**A.** Its value is 0.71 SUV.

**Q.** And the “peak value of brain time-activity curve (SUV)” value ([1]; whole brain, at 2.8 min p.i.)?
**A.** The value was 0.55 SUV.

**Q.** What about the chemical stability [2] of the same compound?
**A.** Its chemical stability is “stable”.
